Results reported in article PMC7527723, “Sex Steroids Induce Membrane Stress Responses and Virulence Properties in Pseudomonas aeruginosa” (mBio, 2020).

T1: Pseudomonas aeruginosa MucB protein (Pseudomonas aeruginosa, UniProt P38108 22-316)
T1 sequence: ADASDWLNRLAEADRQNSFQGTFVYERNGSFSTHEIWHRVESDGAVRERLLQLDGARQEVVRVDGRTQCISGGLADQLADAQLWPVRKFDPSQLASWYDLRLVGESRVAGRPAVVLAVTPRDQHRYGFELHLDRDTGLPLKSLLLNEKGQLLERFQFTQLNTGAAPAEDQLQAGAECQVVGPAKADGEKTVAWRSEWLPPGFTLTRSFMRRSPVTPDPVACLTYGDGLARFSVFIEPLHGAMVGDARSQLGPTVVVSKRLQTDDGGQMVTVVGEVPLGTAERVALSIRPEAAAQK

B1: MucA (natural protein)
chain: YNQNDALPQMAQQGTTPQIALPQVKGPAVLAGYSEEQGAPQVITNSSSSDTRWHEQRLPIYLRQHVQQSAVSGTESALPYARAASLENR
notes: also called anti-sigma factor

Experiments:
Vfr = target: T2, Vfr (Pseudomonas aeruginosa, UniProt P55222); assay: biochemical; format: binding
T2 construct: purified protein

[1] = target: T1, Pseudomonas aeruginosa MucB protein; assay: SPR; purified MucB subjected to MucA binding (control); which partner was immobilised, buffer and temperature are not told in the text shown; conditions: both partners purified

T2 sequence (P55222 whole entry): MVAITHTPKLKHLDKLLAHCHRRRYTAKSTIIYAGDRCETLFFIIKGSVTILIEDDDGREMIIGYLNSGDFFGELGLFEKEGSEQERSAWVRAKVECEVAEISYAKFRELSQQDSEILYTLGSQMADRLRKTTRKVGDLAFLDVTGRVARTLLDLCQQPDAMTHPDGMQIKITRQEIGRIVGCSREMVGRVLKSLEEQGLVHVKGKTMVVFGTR

| Molecule | Kd (Vfr) | Kd [1] |
| --- | --- | --- |
| C[C@]12CC[C@@H]3c4ccc(O)cc4CC[C@H]3[C@@H]1C[C@@H](O)[C@@H]2O [E3, estriol] | 750 to 782 µM |  |
| C[C@]12CC[C@H]3[C@@H](CCC4=CC(=O)CC[C@@]43C)[C@@H]1CC[C@@H]2O [T, testosterone] | 1700 to 1800 µM |  |
| B1 |  | 2.93 µM |
